Consider one compound from PMC10398414, “Isolation and characterization of β-transducin repeat-containing protein ligands screened using a high-throughput screening system” (Oncology Research, 2023).

In data set [1] the target is Pin1 (Homo sapiens, UniProt Q13526). Put plainly: Binding to Pin1 (data not shown).
For data set [2], the system named is HeLa cells. Kind of data set: Cytotoxicity / cell death. In kind it is cell-based. Conditions: data not shown.
The target of data set [3] is SKP2 (Homo sapiens, UniProt Q13309). Kind of data set: Binding to SKP2 (data not shown).
SKP2, sequence (Q13309 whole entry, species assumed): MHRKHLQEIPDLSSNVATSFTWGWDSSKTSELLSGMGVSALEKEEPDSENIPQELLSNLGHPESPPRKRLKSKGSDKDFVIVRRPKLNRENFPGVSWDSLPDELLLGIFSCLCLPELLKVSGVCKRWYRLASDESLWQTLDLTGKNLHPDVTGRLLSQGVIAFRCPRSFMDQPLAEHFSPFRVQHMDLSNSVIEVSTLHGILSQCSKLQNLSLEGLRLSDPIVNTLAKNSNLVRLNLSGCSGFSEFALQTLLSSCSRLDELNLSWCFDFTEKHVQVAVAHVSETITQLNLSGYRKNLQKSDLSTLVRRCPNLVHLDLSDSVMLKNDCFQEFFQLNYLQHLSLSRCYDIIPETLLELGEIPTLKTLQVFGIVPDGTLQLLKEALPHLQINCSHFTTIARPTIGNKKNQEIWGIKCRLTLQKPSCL
The target of data set [4] is SCF^β-TrCP1 (Homo sapiens, UniProt Q9Y297). Put plainly: In vitro ubiquitination assay (GST-Wee1KR substrate, immunoblotting). In kind it is biochemical. Conditions: immunoblots quantitated by ImageJ. The protocol: Components of SCF complex (SKP1, Cul1, Rbx1, and hemagglutinin (HA)-tagged β-TrCP) were expressed in HEK293T cells. Anti-HA antibody was added into the SCF complexes expressed HEK 293T cell lysate and rotated at 4°C for 1 h. Aliquots of this mixture were added to protein G beads and rotated at 4°C for 30 min. After washing the beads in cell lysis buffer three times, the tube was centrifuged at 20,400 × g for 5 min and the supernatant was discarded. The protein on the beads was used as recombinant SCF^β-TrCP complexes. Aliquots of SCF complexes bound on the beads were then added to ubiquitination reactions (10 mM Tris pH = 7.5, 5 mM MgCl2, 1 mM DTT, 1 mM ATP, 20 mM creatine phosphate, 0.1 mg/mL creatine kinase, 5 mM NaF, 1 mM Na3VO4, 2 mg/mL ubiquitin, 0.5 μg E1 enzyme, 2 μg E2 enzyme) in a final volume of 30 µL. Compounds of 100 µM final concentration were added to reactions, and GST-Wee1KR was added as substrate 15 min later. The reaction mixtures were incubated at 37°C for 2 h and were further examined by immunoblotting.
SCF^β-TrCP1, sequence (Q9Y297 whole entry): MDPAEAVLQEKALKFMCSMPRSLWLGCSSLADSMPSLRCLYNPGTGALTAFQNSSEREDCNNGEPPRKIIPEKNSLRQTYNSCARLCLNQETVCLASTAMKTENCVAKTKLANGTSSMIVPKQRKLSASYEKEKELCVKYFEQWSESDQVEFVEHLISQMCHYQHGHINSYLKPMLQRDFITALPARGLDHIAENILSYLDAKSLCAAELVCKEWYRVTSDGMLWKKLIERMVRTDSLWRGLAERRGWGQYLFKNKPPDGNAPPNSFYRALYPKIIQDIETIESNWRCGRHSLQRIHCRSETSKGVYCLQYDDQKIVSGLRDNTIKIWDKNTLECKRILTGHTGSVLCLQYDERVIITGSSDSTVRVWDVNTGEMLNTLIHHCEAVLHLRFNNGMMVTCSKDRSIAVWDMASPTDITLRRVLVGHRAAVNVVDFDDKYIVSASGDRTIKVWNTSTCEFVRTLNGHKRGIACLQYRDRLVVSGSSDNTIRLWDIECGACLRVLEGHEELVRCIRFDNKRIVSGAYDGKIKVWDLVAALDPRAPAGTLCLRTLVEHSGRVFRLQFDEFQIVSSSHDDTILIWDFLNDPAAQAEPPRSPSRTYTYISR
SCF^β-TrCP1, sequence (P63208 whole entry partner): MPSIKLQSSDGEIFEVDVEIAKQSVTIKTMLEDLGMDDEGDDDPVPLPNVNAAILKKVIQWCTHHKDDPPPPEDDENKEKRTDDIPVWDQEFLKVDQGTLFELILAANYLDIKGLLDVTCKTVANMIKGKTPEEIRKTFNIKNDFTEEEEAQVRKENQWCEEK
SCF^β-TrCP1, sequence (Q13616 whole entry partner): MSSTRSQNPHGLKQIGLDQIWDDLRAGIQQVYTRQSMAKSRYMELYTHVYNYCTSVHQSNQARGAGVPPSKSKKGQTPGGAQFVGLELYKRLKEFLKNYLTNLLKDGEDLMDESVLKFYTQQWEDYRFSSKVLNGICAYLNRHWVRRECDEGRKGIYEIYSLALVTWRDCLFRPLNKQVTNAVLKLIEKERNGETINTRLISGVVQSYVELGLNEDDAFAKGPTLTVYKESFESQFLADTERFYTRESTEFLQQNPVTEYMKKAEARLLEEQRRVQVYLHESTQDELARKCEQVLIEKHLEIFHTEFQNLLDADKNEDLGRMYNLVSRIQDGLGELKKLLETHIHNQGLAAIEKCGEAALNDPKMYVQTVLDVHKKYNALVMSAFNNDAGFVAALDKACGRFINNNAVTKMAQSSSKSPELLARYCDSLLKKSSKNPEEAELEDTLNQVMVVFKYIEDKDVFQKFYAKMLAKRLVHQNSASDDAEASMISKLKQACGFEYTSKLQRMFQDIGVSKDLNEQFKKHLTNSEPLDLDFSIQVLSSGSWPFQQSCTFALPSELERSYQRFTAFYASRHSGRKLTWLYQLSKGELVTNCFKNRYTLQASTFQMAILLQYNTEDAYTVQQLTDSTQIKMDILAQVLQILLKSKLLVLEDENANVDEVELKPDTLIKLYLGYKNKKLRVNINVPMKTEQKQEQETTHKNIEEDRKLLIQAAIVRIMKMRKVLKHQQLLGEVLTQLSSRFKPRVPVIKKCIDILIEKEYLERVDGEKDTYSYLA
SCF^β-TrCP1, sequence (P62877 whole entry partner): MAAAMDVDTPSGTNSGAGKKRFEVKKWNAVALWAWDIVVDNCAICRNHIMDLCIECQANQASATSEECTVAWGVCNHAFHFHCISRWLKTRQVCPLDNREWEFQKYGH
Immunoblotting followed by in vitro ubiquitination assay was performed using anti-human Wee1A [30]. Immunoblotting in the analysis of protein degradation was performed using anti-phospho-β-catenin (Ser33/37/Thr41) antibody (1:1000, Cell Signaling Technology, Danvers, MA, USA), anti-phospho-IκBα (Ser32) (14D4), Rabbit mAb (1:1000, Cell Signaling Technology), anti-β-catenin (D10A8) (1:1000, Cell Signaling Technology), anti-IκBα antibody (1:1000, Cell Signaling Technology), and Goat polyclonal anti-rabbit IgG antibody (1:5000, Proteintech, Am Klopferspitz, Planegg-Martinsried, Germany). The transferred membrane was incubated with specific antibody, then detected using Super Signal West Pico chemiluminescent substrate (Thermo Fisher Scientific) and FUSION SOLO S (VILBER LOURMAT/MS equipment, Zi Sud torcy, Marne-la-vallee, France). The quantification of immunoblotting results was performed using ImageJ software.

Data set [5] concerns NF-κB transcription activity in HeLa cells. Kind of data set: NF-κB luciferase reporter assay (pGL-4.32), TNF-α induced. It counts as cell-based. The protocol: For NF-κB transcription activity, PGL-4.32 contains five copies of the NF-κB response element, which is responsible for the transcription of the luciferase reporter gene, with pRL-SV40 as the internal control. NF-κB transcription activity was determined by firefly luciferase expression and normalized by renilla luciferase level. pGL-4.32 reporter plasmids (Promega) and pRL-sv40 renilla luciferase reporter (Promega) were co-transfected into HeLa cells using Lipofectamine 3000 reagent kit. Subsequently, 24 h after transfection, cells were cultured with the compounds of different dilutions for another 24 h. Furthermore, TNF-α was added, and the plates were cultured for another 4 h. The cells were lysed, and the luminescence was measured using the Luciferase Assay System. A minimum of three samples were taken for each sample.
In general terms: In a reporter assay the amount or activity of a reporter protein is the signal.

Data set [6] concerns 14-3-3 proteins. Put plainly: Binding to 14-3-3 proteins (data not shown).
The target of data set [7] is polo-box domain of Plk1 (Homo sapiens, UniProt P53350). Kind of data set: Binding to polo-box domain of Plk1 (data not shown).
polo-box domain of Plk1, sequence (P53350 326-603 limits assumed): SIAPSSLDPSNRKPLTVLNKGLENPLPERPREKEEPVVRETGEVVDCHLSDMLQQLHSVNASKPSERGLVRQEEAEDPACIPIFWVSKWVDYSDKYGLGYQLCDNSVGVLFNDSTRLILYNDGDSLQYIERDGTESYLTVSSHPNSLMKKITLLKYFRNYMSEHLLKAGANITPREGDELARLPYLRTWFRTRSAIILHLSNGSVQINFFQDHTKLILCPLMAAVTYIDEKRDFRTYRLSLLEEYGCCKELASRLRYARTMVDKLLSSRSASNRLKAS

Pin1, sequence (Q13526 whole entry, species assumed): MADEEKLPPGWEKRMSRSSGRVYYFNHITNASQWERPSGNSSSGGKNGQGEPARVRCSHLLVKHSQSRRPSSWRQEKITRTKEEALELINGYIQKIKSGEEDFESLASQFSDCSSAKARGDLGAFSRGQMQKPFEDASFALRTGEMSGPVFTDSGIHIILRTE

For the compound `Cc1cc(O)c(C(=O)/C=C/c2cccc(O)c2)c(=O)o1` [NPD5943], in data set [1], the “binding to Pin1” value is “did not observe any binding”. Further, in data set [2], the non-specific cytotoxicity result was “cytotoxicity only at high concentration”. Besides, the “binding to SKP2” value in data set [3] is “did not bind to SKP2 at all”. Moreover, in data set [4], it took 30 µM to reach half-maximal inhibition (IC50). In data set [5] (20 μM), the “NF-κB transcription, % of that of the control group (DMSO, TNF-α)” value is “approximately 20%”. In addition, in data set [5] (24 h compound then TNF-α 4 h), the “TNF-α induced NF-κB activation of transcription” value was “reduced NF-κB activation dose-dependently”. The “binding to 14-3-3 proteins” value in data set [6] was “did not observe any binding”. For the same compound, the “binding to polo-box domain of Plk1” value in data set [7] is “did not observe any binding”.
